Measured values published in patent US20060276385A1, “Anti-inflammatory agents and methods of their use” (priority 2003, published 2006).
Residues, ends and D or L forms follow the SMILES beside them. *: point of attachment. Cbz = O=C(OCc1ccccc1)*

Key:
[1] = system: ICAM-1; assay: ICAM-1 surface expression by FACS analysis in HAEC; format: cell-based, human; conditions: for BMP4-induced ICAM-1 expression in presence of ROS scavenger: HAEC transfected with BMP4; for effect on OS-induced ICAM-1 expression: HAEC exposed to OS 1 day, PEG-catalase or Tiron included during shear
Protocol: (§1) Endothelial cells: Mouse aortic endothelial cells (MAEC) were cultured and used at passages 4-8 as described (Cai, H., et al. (2002) J Bio Chem 107, 48311-48317). Human aortic endothelial cells (HAEC) purchased from Clonetics were cultured using EGM-2 bullet kit (Clonetics) and used at passages 4-8. Alternatively, endothelial cells obtained from the thoracic aortas of C57/BL6 control (MAE-wt) and p47^phox-null mice (MAE-p47^−/−) were isolated and cultured as described previously (Hwang, J. et al. (2003) J Biol Chem 278:47291-8), and used between passages 4-10.
(§2) Shear stress studies: Confluent endothelial monolayers grown in 100 mm tissue culture dishes were exposed to an arterial level of uni-directional LS (15 dyn/cm^2) in the growth medium by rotating a Teflon cone (0.5° cone angle) as described previously. To mimic unstable shear conditions in vivo, endothelial cells were exposed to OS with directional changes of flow at 1 Hz cycle (±5 dyn/cm^2) by rotating the cone back-and-forth using a stepping motor (Servo Motor) and a computer program (DC Motor Company, Atlanta, Ga.). In some studies, 5 dyn/cm^2 unidirectional LS was used for comparison to OS (±5 dyn/cm^2).
(§3) Fluorescence activated cytometry sorting (FACS) analysis: Treated cells were dissociated into single cell suspensions using 0.25% trypsin-EDTA and resuspended in a FACS buffer (Hank's buffered solution containing 5% FBS). Aliquots of cell suspensions were incubated with ICAM-1 antibody (R&D Systems) for 20 min on ice, washed twice with FACS buffer, and incubated with secondary antibody (fluorescein-5-isothiocyanate- or phycoerytherin-conjugated, Chemicon) for 20 min on ice in the dark. Then samples were washed again, fixed in 1% paraformaldehyde and analyzed by FACS (Calibur, Becton-Dickinson) using CellQuest software. The fluorescence intensity of ICAM-1 and forward cell scattering of 30,000 cells were measured and the geometric means calculated from histograms were shown. In some studies, HAEC were transfected with either BMP4 cloned in a bi-cistronic pAdTrack CMV vector or an empty vector, both expressing green fluorescent protein (GFP), using Lipofectamine 2000. In these experiments, ICAM-1 expression was measured in the red phycoerytherin channel, while the green channel was used to monitor the […] expression-GFP expression was determined by FACS analysis and fluorescence microscopy (20-30% transfection efficiency). Because expression of GFP was similar among different treatment groups within the same experiment, it was unnecessary to normalize ICAM-1 expression data to GFP level. Human recombinant noggin was purchased from R&D Systems and used in all experiments at 50 ng/ml (Dale, L., and Jones, C. M. (1999) Bioessays 21, 751-760; Zimmerman, L. B., et al. (1996) Cell 86, 599-606; Brunei, L. J., et al. (1998) Science 280, 1455-1457).

[2] = system: MAEC; assay: Monocyte adhesion: THP-1 monocytes bound to mouse aortic endothelial cells; format: cell-based; conditions: for effect on BMP4-induced monocyte adhesion: MAE-wt, BMP4 20 ng/ml 18 hrs, YN1 5 μg/ml last 30 min, PEG-catalase 100 U/ml 18 hrs or Tiron 10 μmol/L 1 hr pre-incubation
Protocol: as §1, §2
(§4) Monocyte Adhesion: Monocyte binding was determined under no-flow conditions using THP-1 monocytes (ATCC) by the method described by Chappel et al (Chappell, D. C., et al. (1998) Circ Res 82, 532-539). Briefly, THP-1 cells (5×10^5 cells/ml) were labeled with a fluorescent dye 2′,7′-bis(carboxyethyl)-5(6)-carboxyfluorescein-AM (BCECF, Molecular Probes) (1 mg/ml) in serum-free RPMI medium for 45 min at 37° C. Following exposure to shear stress or BMP treatments in the presence or absence of noggin or vehicle, the endothelial cells were washed in RPMI medium before adding BCECF-loaded THP-1 cells (1:1 ratio). After a 30 min incubation at 37° C. under no-flow conditions, unbound monocytes were removed by washing the endothelial dishes 5 times with Hank's PBS. Bound monocytes were quantified by either counting the cells under a fluorescent microscope or by measuring the fluorescent intensity of cell lysates by fluorescence spectrophotometry using a plate reader. […] Some studies were performed with MAEC pretreated with 5 μg/ml of mouse-ICAM1 antibody (YN1, Southern Biolechonology) (Kevil, C. G., et al. (2001) Am J Physiol Cell Physiol 281, C1442-1447).
In FIG. 7B, confluent MAE-wt cells were pre-incubated with cell-permeable PEG-catalase (Catalase, 100 U/ml for 18 hrs) or Tiron (10 μmol/L for 1 hr). Cells were then incubated with 20 ng/ml BMP4 or vehicle for additional 18 hrs. The treated cells in 7A and 7B were washed, and fluorescently-labeled THP-1 monocytes were added. Unbound THP-1 cells were washed after 30 min, and bound monocytes were counted with a fluorescence microscope using a 10× objective (5-10 different fields per dish). […] As a positive control, monocyte binding was determined using MAE-wt treated with TNF-α(100 U/ml for 2hrs).

[3] = system: MAE-p47−/− cells; assay: Monocyte adhesion to p47phox-null endothelial cells, with or without p47phox transfection; format: cell-based, mouse; conditions: MAE-p47−/− cells transfected with p47phox (rescued); BMP4 20 ng/ml or TNF-α 100 U/ml, 18 hrs
Protocol: as §1, §4
Transfection of p47phox: In some studies MAE-p47^−/− cells were trasnfected withp47phox expression vector or an empty vector as described (Hwang, J. et al. (2003) J Biol Chem278-47291-8).
Next, monocyte adhesion was determined in these cells. […] After 18 hrs, cells were washed and monocyte binding was determined as described in FIG. 7. […]

[4] = system: VCAM-1; assay: VCAM-1 expression in endothelial cells; format: cell-based, human; conditions: HAEC, FACS; TNF-α 100 U/ml for 2 hr as positive control
Protocol: as §3
(§5) HAEC treated with OS, BMP4 or static condition were analyzed by FACS using antibodies specific to VCAM-1 (C) and E-selectin (D) as described in panel A using TNFa (1OOU/ml, for 2 hr) as a positive control.

[5] = system: E-selectin; assay: E-selectin surface expression by FACS analysis in HAEC; format: cell-based, human; conditions: TNF-α 100 U/ml for 2 hr as positive control
Protocol: Fluorescence activated cytometry sorting (FACS) analysis: Treated cells were dissociated into single cell suspensions using 0.25% trypsin-EDTA and resuspended in a FACS buffer (Hank's buffered solution containing 5% FBS). Aliquots of cell suspensions were incubated with ICAM-1 antibody (R&D Systems) for 20 min on ice, washed twice with FACS buffer, and incubated with secondary antibody (fluorescein-5-isothiocyanate- or phycoerytherin-conjugated, Chemicon) for 20 min on ice in the dark. Then samples were washed again, fixed in 1% paraformaldehyde and analyzed by FACS (Calibur, Becton-Dickinson) using CellQuest software. The fluorescence intensity of ICAM-1 and forward cell scattering of 30,000 cells were measured and the geometric means calculated from histograms were shown. […] In these experiments, ICAM-1 expression was measured in the red phycoerytherin channel, while the green channel was used to monitor the […] expression-GFP expression was determined by FACS analysis and fluorescence microscopy (20-30% transfection efficiency). […]
as §5

[6] = system: MAE-wt cells; assay: H2O2 assay by oxidation of DCF-DA; format: cell-based, mouse; conditions: PEG-catalase 100 U/ml for 1 day before and during BMP4 treatment
Protocol: H2O2 assay: Cells grown in 6-well plates were treated with BMP4 or vehicle control for 18 hrs in the presence or absence of cell-permeable polyethylene glycol (PEG)-catalase (100 U/ml). Cells were then washed once with Hepes buffered saline solution (HBSS) followed by incubation with 7.5 μg/ml 2′, 7′-dichlorofluorescein diacetate (DCF-DA, Molecular Probes) in HBSS for 1 hr at 37 C° in the dark. Cells were washed with HBSS, incubated further for an additional 40 min in HBSS, and the DCF fluorescence intensities were measured in a Cytofluor Multi-Well plate reader (excitation at 475 nm and emission at 525 nm).
In addition, BMP4 stimulated production of H2O2 by 70% above control as determined by oxidation of DCF-DA (FIG. 10B). […] The cells were washed, incubated with DCF-DA, and the fluorescent intensities determined by fluorometry. Shown is a mean±SEM (n=3, p<0.05). In this assay, a redox cycling menadione (10 μM) was used as positive control (data not shown).

[7] = system: MAE-wt cells; assay: O2− assay by electron spin resonance spectroscopy with CMH spin probe; format: cell-based, mouse; conditions: MAE-wt exposed to OS for 1 day, noggin during OS exposure
Protocol: O2^− Assay: O2^− production was determined by electron spin resonance spectroscopy using methoxycarbonyl-2,2,5,5-tetramethyl-pyrrolidine (CMH) as a spin probe in the presence or absence of PEG-superoxide dismutase (PEG-SOD; 50 U/ml) to quantify the SOD-inhibitable portions of CM.
In FIG. 10A immediately following treatment of MAE wt cells with BMP4 (200 ng/ml) for 18 hrs, cells were trypsinized and reconstituted in Krebs-Hepes buffer. Equal number of cells was incubated with a spin trap CMH in the presence or absence of PEG-SOD (50 U/mL). The specific O2^− production was calculated by subtracting SOD-inhibitable portions from total O2^− production as determined by following CM production (mean±SEM, n=3, *p<0.05).

With `CC(C)C[C@@H](C=O)NC(=O)[C@H](CC(C)C)NC(=O)[C@H](CC(C)C)NC(=O)OCc1ccccc1` [MG132, reference compound] (Cbz-Leu-Leu-Leu-aldehyde) as the molecule, how does the “effect on ICAM-1 expression induced by BMP4” value ([1]; HAEC, in the presence of NF-κB translocation inhibitor, inactive peptide or proteosome inhibitor) read?
The value was “completely prevented”.

Which “BMP4-induced ICAM-1 expression in presence of ROS scavenger” value [1] does the source give for `CC(=O)N[C@@H](CS)C(=O)O` [N-Acetyl-cysteine, reference compound] here?
Its value is 23 % of control.

Which results are given for `O=S(=O)(O)c1cc(O)c(O)c(S(=O)(=O)O)c1` [Tiron, reference compound]?
effect on OS-induced ICAM-1 expression ([1]; noggin 50 ng/ml): completely prevented; effect on BMP4-induced monocyte adhesion [2]: completely blocked

How did the “ICAM-1 expression above control cells” value ([1]; HAEC, TNF-α 100 U/ml for 2 hr) turn out when TNF-α [reference compound] was run?
Its value is 4 to 5 fold.

And the “increase in monocyte adhesion above the control” value [3]?
The value was “approximately 4 fold”.

And the “effect on surface expression of VCAM-1” value [4]?
Its value is “strongly increased”.

What about the “effect on surface expression of E-selectin” value [5] of the same molecule?
The value was “strongly increased”.

B1: PEG-catalase: cell-permeable polyethylene glycol-catalase converting H2O2 to H2O, 100 U/ml (protein, UniProt P00432 2-527, looked up)
Catalase: ADNRDPASDQMKHWKEQRAAQKPDVLTTGGGNPVGDKLNSLTVGPRGPLLVQDVVFTDEMAHFDRERIPERVVHAKGAGAFGYFEVTHDITRYSKAKVFEHIGKRTPIAVRFSTVAGESGSADTVRDPRGFAVKFYTEDGNWDLVGNNTPIFFIRDALLFPSFIHSQKRNPQTHLKDPDMVWDFWSLRPESLHQVSFLFSDRGIPDGHRHMNGYGSHTFKLVNANGEAVYCKFHYKTDQGIKNLSVEDAARLAHEDPDYGLRDLFNAIATGNYPSWTLYIQVMTFSEAEIFPFNPFDLTKVWPHGDYPLIPVGKLVLNRNPVNYFAEVEQLAFDPSNMPPGIEPSPDKMLQGRLFAYPDTHRHRLGPNYLQIPVNCPYRARVANYQRDGPMCMMDNQGGAPNYYPNSFSAPEHQPSALEHRTHFSGDVQRFNSANDDNVTQVRTFYLKVLNEEQRKRLCENIAGHLKDAQLFIQKKAVKNFSDVHPEYGSRIQALLDKYNEEKPKNAVHTYVQHGSHLSAREKANL
modifications: PEG conjugated
notes: cell-permeable polyethylene glycol-catalase converting H2O2 to H2O, 100 U/ml
With B1 as the molecule, how does the “effect on OS-induced ICAM-1 expression” value ([1]; noggin 50 ng/ml) read?
Its value is “completely prevented”.

And the “BMP4-induced ICAM-1 expression in presence of ROS scavenger” value [1]?
Its value is 26 % of control.

And the “effect on BMP4-induced monocyte adhesion” value [2]?
The value was “completely blocked”.

What about the “effect on BMP-dependent H2O2 production” value [6] of the same molecule?
The value was “completely blocked”.

B2: noggin (protein, UniProt Q13253 28-232, looked up)
Noggin: QHYLHIRPAPSDNLPLVDLIEHPDPIFDPKEKDLNETLLRSLLGGHYDPGFMATSPPEDRPGGGGGAAGGAEDLAELDQLLRQRPSGAMPSEIKGLEFSEGLAQGKKQRLSKKLRRKLQMWLWSQTFCPVLYAWNDLGSRFWPRYVKVGSCFSKRSCSVPEGMVCKPSKSVHLTVLRWRCQRRGGQRCGWIPIQYPIISECKCSC
notes: natural BMP antagonist
What does the source list for B2?
effect on OS-induced ICAM-1 expression ([1]; noggin 50 ng/ml): completely inhibited; effect on TNF-α-induced ICAM-1 expression ([1]; HAEC, TNF-α 100 U/ml for 6 hr, noggin 50 ng/ml): did not affect; effect on OS-induced monocyte adhesion ([2]; MAEC, OS 24 hr, noggin 50 ng/ml): inhibited OS-induced monocyte adhesion; effect on OS-induced O2− increase [7]: virtually blocked
